Here are results for 60 molecules from ChEMBL document CHEMBL5729293, “Inhibitors of KEAP1-Nrf2 protein-protein interaction” (2022).

Molecules are shown by their SMILES. A value given as a limit tells only on which side of the number the result lay.

This test is described as follows: Fluorescence Based Assay: The details of the KEAP1 KELCH ThermoFluor® Assay Construct are as follows: Kelch domain of human KEAP 1 (321-624 aa) was used in the assay. The protein was expressed in E. coli with 6His tag that was cleaved prior to receipt for use.ThermoFluor® experiments were carried out using instruments owned by Janssen Research and Discovery, L.L.C. through its acquisition of 3-Dimensional Pharmaceuticals, Inc. 1,8-ANS (Invitrogen) was used as a fluorescent dye. Protein (KEAP Kelch) and compound solutions were dispensed into black 384-well polypropylene PCR microplates (Abgene) and overlayed with silicone oil (1 μL, Fluka, type DC 200) to prevent evaporation.Reference wells contained KEAP Kelch without compounds, and the assay conditions were as follows: 1.1 μM (0.037mg/mL) KEAP Kelch, 80 μM 1,8-ANS, 25 mM PIPES, pH 7.0, 100 mM NaCl, 0.002% Tween-20. A general note: DSF heats the sample and reads unfolding from a dye or from intrinsic fluorescence.
As usually defined, the Kd is the free concentration of one partner at which half of the binding sites on the other are occupied at equilibrium, for simple one-to-one binding. `Cc1cnc2c(c1)S(=O)(=O)N(Cc1cc([C@@H](c3ccn4c(C(F)(F)F)nnc4c3C)C(C)(C)C(=O)O)ccc1C)CC1(COC1)O2` came in with a Kd of less than 1 nM.

Molecule `Cc1ccc(C(CC(=O)O)c2ccn3c(C(F)(F)F)nnc3c2C)nc1CN1CC2(COC2)Oc2ncccc2S1(=O)=O` (stereo not given) displayed a Kd of less than 1 nM. In turn, `Cc1cc2cc([C@H](CC(=O)O)c3ccc(C)c(CN4C[C@H]5CCCCN5c5ncccc5S4(=O)=O)c3)n(C)c2nn1` registered a Kd of less than 1 nM. In the case of `Cc1cnc2c(c1)S(=O)(=O)N(Cc1cc(C(c3ccc4c(nnn4C4CC4)c3C)C(C)(C)C(=O)O)cnc1C)CC1(CC1)O2` (stereo not given) it was less than 1 nM; in that of `Cc1ccc([C@@H](CC(=O)O)c2ccn3c(C(F)(F)F)nnc3c2C)nc1CN1C[C@@H]2CCCCN2c2ncccc2S1(=O)=O`, less than 1 nM.

Regarding `Cc1cnc(C(c2ccn3c(C(F)(F)F)nnc3c2C)C(C)(C)C(=O)O)cc1CN1CC2(CCOCC2)Oc2ncccc2S1(=O)=O` (stereo not given), the Kd was less than 1 nM.

As for `Cc1cnc2c(c1)S(=O)(=O)N(Cc1cc(C(c3ccn4c(C5CC5)nnc4c3C)C(C)(C)C(=O)O)ccc1C)CC1(CC1)O2` (stereo not given), the Kd is less than 1 nM.

The molecule `Cc1ccc([C@@H](c2ccn3c(C(F)(F)F)nnc3c2C)C(C)(C)C(=O)O)cc1CN1CC2(CC2)Oc2ncccc2S1(=O)=O` returned a Kd of less than 1 nM. Consider `Cc1ccc([C@H](CC(=O)O)c2ccc3c(nnn3CC3CC3)c2C)cc1CN1C[C@H]2CCCCN2c2ncccc2S1(=O)=O`, for which the Kd was less than 1 nM. As to `Cc1ccc([C@H](CC(=O)O)c2ccn3c(C(F)(F)F)nnc3c2C)cc1CN1C[C@H]2CCCCN2c2nc(C(N)=O)ccc2S1(=O)=O`, the dissociation constant Kd is less than 1 nM. In turn, `Cc1ccc([C@H](c2ccn3c(C4CC4)nnc3c2C)C(C)(C)C(=O)O)cc1CN1CC2(COC2)Oc2ncccc2S1(=O)=O` came in with a Kd of less than 1 nM. On to `Cc1ccc([C@H](c2ccn3c(C(F)(F)F)nnc3c2C)[C@H](C)C(=O)O)cc1CN1CC2(CC2)Oc2ncccc2S1(=O)=O`, for which the equilibrium dissociation constant (Kd) was less than 1 nM.

The molecule `CC[C@@H]1CN(Cc2cc(C(CC(=O)O)c3ccn4c(C(F)F)nnc4c3C)ccc2C)S(=O)(=O)c2cccnc2O1` (stereo not given in full) gave a Kd of less than 1 nM.

`Cc1ccc([C@H](c2ccn3c(C(F)(F)F)nnc3c2C)C(C)(C)C(=O)O)cc1CN1CC2(CCOCC2)Oc2nc(OCCC3CCNCC3)c(C)cc2S1(=O)=O` displayed a dissociation constant (Kd) of less than 1 nM. Consider `Cc1cnc2c(c1)S(=O)(=O)N(Cc1nc(C(CC(=O)O)c3ccn4c(C(F)(F)F)nnc4c3C)ccc1C)C[C@H]1CCCCN21` (stereo not given in full), for which the Kd was less than 1 nM.

In turn, `Cc1ccc([C@@H](CC(=O)O)c2ccn3c(C(F)(F)F)nnc3c2C)cc1CN1C[C@]2(C)CCCN2c2ncccc2S1(=O)=O` returned a dissociation constant (Kd) of less than 1 nM.

`Cc1c(C(CC(=O)O)c2ccc(Cl)c(CN3CC4CCCCN4c4ncccc4S3(=O)=O)c2)ccn2c(C(F)(F)F)nnc12` (stereo not given) came in with a dissociation constant Kd of less than 1 nM. In the case of `Cc1ccc([C@H](c2ccn3c(C(F)(F)F)nnc3c2)C(C)(C)C(=O)O)cc1CN1CC2(CCOCC2)Oc2ncccc2S1(=O)=O` it was less than 1 nM; in that of `Cc1ccc([C@H](CC(=O)O)c2ccn3c(C(F)(F)F)nnc3c2C)cc1CN1C[C@@H]2CCN2c2ncccc2S1(=O)=O`, less than 1 nM; in that of `CC[C@@H]1CN(Cc2nc(C(CC(=O)O)c3ccc4c(nnn4C4CC4)c3C)ccc2C)S(=O)(=O)c2cccnc2O1` (stereo not given in full), less than 1 nM. In the case of `Cc1ccc([C@H](c2ccn3c(C(F)(F)F)nnc3c2C)C(C)(C)C(=O)O)cc1CN1CC2(CCNCC2)Oc2ncccc2S1(=O)=O` it was greater than 10000 nM; in that of `Cc1ccc([C@@H](c2ccn3c(C4CC4)nnc3c2C)C(C)(C)C(=O)O)cc1CN1CC2(COC2)Oc2ncccc2S1(=O)=O`, less than 1 nM; in that of `Cc1cc2cc(C(CC(=O)O)c3ccc(C)c(CN4C[C@@H]5CCCCN5c5ncccc5S4(=O)=O)c3)n(C)c2nn1` (stereo not given in full), less than 1 nM. In the case of `Cc1ccc([C@H](CC(=O)O)c2ccn3c(C(F)(F)F)nnc3c2C)cc1CN1C[C@@H]2CCCCN2c2ncc(Cl)cc2S1(=O)=O` it was less than 1 nM; in that of `Cc1ccc([C@@H](c2ccn3c(C(F)(F)F)nnc3c2C)C(C)(C)C(=O)O)nc1CN1CC2(CCOCC2)Oc2ncccc2S1(=O)=O`, less than 1 nM. On to `Cc1ccc(C(CC(=O)O)c2ccn3c(C(F)F)nnc3c2C)cc1CN1CC2(CCOCC2)Oc2ccc(F)cc2S1(=O)=O` (stereo not given), for which the Kd was less than 1 nM.

Turning to `Cc1ccc([C@@H](c2ccn3c(C(F)(F)F)nnc3c2C)C(C)(C)C(=O)O)cc1CN1CC2(CCOCC2)Oc2nc(CCC(=O)NCCOCCN)ccc2S1(=O)=O`, the dissociation constant Kd was greater than 10000 nM. In the case of `Cc1cnc2c(c1)S(=O)(=O)N(Cc1cc([C@@H](c3ccn4c(C(F)(F)F)nnc4c3C)C(C)(C)C(=O)O)ncc1C)CC1(CC1)O2` it was less than 1 nM.

As for `Cc1ccc([C@@H](c2ccn3c(C(F)(F)F)nnc3c2C)C(C)(C)C(=O)O)cc1CN1CC2(CCOCC2)Oc2nc(O[C@@H](C)CN3CCCCC3)c(C)cc2S1(=O)=O`, the Kd was less than 1 nM. In the case of `Cc1ccc(C(CC(=O)O)c2ccc3c(nnn3CC3CC3)c2C)cc1CN1CC2(CC2)N(C)c2ncccc2S1(=O)=O` (stereo not given) it was less than 1 nM; in that of `Cc1ccc([C@@H](c2ccn3c(C(F)(F)F)nnc3c2C)C(C)(C)C(=O)O)cc1CN1CC2(CC2)Oc2nc(OCCN3CCC3)c(C)cc2S1(=O)=O`, less than 1 nM. In the case of `Cc1ccc([C@@H](c2ccn3c(C4CC4)nnc3c2C)C(C)(C)C(=O)O)cc1CN1CC2(CC2)Oc2nc(OCCN3CCCC3)c(C)cc2S1(=O)=O` it was less than 1 nM. On to `Cc1ccc([C@@H](CC(=O)O)c2ccn3c(C(F)(F)F)nnc3c2C)cc1CN1C[C@@H]2CCC(F)(F)CN2c2ncccc2S1(=O)=O`, for which the Kd was less than 1 nM.

Regarding `CC[C@@H]1CN(Cc2cc(C(CC(=O)O)c3ccn4c(C(F)(F)F)nnc4c3C)ccc2C)S(=O)(=O)c2cccnc2O1` (stereo not given in full), the Kd is less than 1 nM. The molecule `Cc1ccc([C@H](CC(=O)O)c2ccn3c(C(F)F)nnc3c2C)cc1CN1C[C@]2(C)CCCN2c2ncccc2S1(=O)=O` yielded a Kd of less than 1 nM.

Turning to `Cc1ccc([C@@H](c2ccn3c(C(F)(F)F)nnc3c2C)C(C)(C)C(=O)O)cc1CN1CC2(CCOCC2)Oc2nc(OCCCO)ccc2S1(=O)=O`, the Kd is less than 1 nM. In turn, `Cc1ccc([C@H](c2ccn3c(C(F)(F)F)nnc3c2C)C(C)(C)C(=O)O)cc1CN1CC2(CCOCC2)Oc2nc(N[C@@H](C)CN3CCOCC3)c(C)cc2S1(=O)=O` gave a Kd of less than 1 nM. For the molecule `Cc1ccc([C@H](CC(=O)O)c2ccn3c(C(F)(F)F)nnc3c2C)cc1CN1C[C@H]2CCCCN2c2ncccc2S1(=O)=O`, the dissociation constant Kd is less than 1 nM.

`COC1CCN(CCOc2nc3c(cc2C)S(=O)(=O)N(Cc2cc([C@@H](c4ccn5c(C(F)(F)F)nnc5c4C)C(C)(C)C(=O)O)ccc2C)CC2(CC2)O3)CC1` displayed a Kd of less than 1 nM. `Cc1cnc([C@@H](c2ccn3c(C(F)F)nnc3c2C)C(C)(C)C(=O)O)cc1CN1CC2(CCOCC2)Oc2nc(OCCN3CCCC3)c(C)cc2S1(=O)=O` showed a Kd of less than 1 nM. `Cc1ccc([C@H](CC(=O)O)c2ccn3c(C(F)(F)F)nnc3c2C)cc1CN1CC2(CC2)Oc2ncc(Cl)cc2S1(=O)=O` had a Kd of less than 1 nM. Take `CCn1nnc2c(C)c([C@@H](CC(=O)O)c3ccc(C)c(CN4C[C@H]5CCCCN5c5ncccc5S4(=O)=O)n3)ccc21`: the Kd was less than 1 nM. For the molecule `Cc1cnc2c(c1)S(=O)(=O)N(Cc1cc(C(CC(=O)O)c3ccn4c(C(F)F)nnc4c3C)ccc1C)CC1(CC1)O2` (stereo not given), the Kd is less than 1 nM. The same measure for `Cc1ccc([C@@H](c2ccn3c(C(F)F)nnc3c2C)C(C)(C)C(=O)O)cc1CN1CC2(CCOCC2)Oc2nc(OCCN3CCCC3)c(C)cc2S1(=O)=O`: less than 1 nM; for `Cc1ccc([C@H](c2ccn3c(C(F)(F)F)nnc3c2C)C(C)(C)C(=O)O)cc1CN1CC(C)(C)Oc2ncccc2S1(=O)=O`: less than 1 nM; for `Cc1cc2cc(C(CC(=O)O)c3ccc(C)c(CN4C[C@H]5CCCCN5c5ncccc5S4(=O)=O)c3)n(C)c2nn1` (stereo not given in full): less than 1 nM. In the case of `Cc1ccc([C@@H](c2ccn3c(C(F)(F)F)nnc3c2C)C(C)(C)C(=O)O)nc1CN1CC2(CCOCC2)Oc2nc(OCCN3CCOCC3)ccc2S1(=O)=O` it was less than 1 nM; in that of `Cc1ccc(C(CC(=O)O)c2ccn3c(C(F)(F)F)nnc3c2C)nc1CN1CC2CCCCN2c2ncc(Cl)cc2S1(=O)=O` (stereo not given), less than 1 nM.

Take `CCn1nnc2c(C)c(C(CC(=O)O)c3ccc(C)c(CN4C[C@@H]5CCCCN5c5ncccc5S4(=O)=O)n3)ccc21` (stereo not given in full): the Kd is less than 1 nM. `Cc1ccc(C(CC(=O)O)c2ccn3c(C(F)F)nnc3c2C)cc1CN1CC2(COC2)Oc2ncccc2S1(=O)=O` (stereo not given) returned a Kd of less than 1 nM. As to `COc1ccc2c(n1)OC1(CCOCC1)CN(Cc1cc([C@@H](c3ccn4c(C(F)F)nnc4c3C)C(C)(C)C(=O)O)ccc1C)S2(=O)=O`, the Kd was less than 1 nM. The same measure for `Cc1ccc([C@H](CC(=O)O)c2ccn3c(C4CC4)nnc3c2C)cc1CN1C[C@H]2CCCN2c2ncccc2S1(=O)=O`: less than 1 nM; for `CCn1nnc2c(C)c([C@@H](CC(=O)O)c3ccc(C)c(CN4C[C@@H]5CCCCN5c5ncccc5S4(=O)=O)n3)ccc21`: less than 1 nM. For the molecule `Cc1ccc([C@H](c2ccc3c(nnn3C3CC3)c2C)C(C)(C)C(=O)O)cc1CN1CC2(CCNCC2)Oc2ncccc2S1(=O)=O`, the equilibrium dissociation constant (Kd) is less than 1 nM. `Cc1ccc([C@@H](c2ccn3c(C(F)F)nnc3c2C)C(C)(C)C(=O)O)cc1CN1CC2(CCOCC2)Oc2ncccc2S1(=O)=O` had a dissociation constant Kd of less than 1 nM.

Turning to `CCn1nnc2c(C)c(C(c3cnc(C)c(CN4CC5(CCOCC5)Oc5ncc(C)cc5S4(=O)=O)c3)C(C)(C)C(=O)O)ccc21` (stereo not given), the Kd is less than 1 nM. `Cc1ccc([C@@H](c2ccn3c(C(F)(F)F)nnc3c2C)C(C)(C)C(=O)O)cc1CN1CC2(CCOCC2)Oc2nc(OCCN3CCCC3)c(C)cc2S1(=O)=O`: the Kd was less than 1 nM. In the case of `Cc1cnc([C@@H](c2ccn3c(C(F)(F)F)nnc3c2C)C(C)(C)C(=O)O)cc1CN1CC2(CC2)Oc2nc(OCCN3CCCCC3)c(C)cc2S1(=O)=O` it was less than 1 nM; in that of `Cc1ccc([C@H](c2ccn3c(C(F)(F)F)nnc3c2C)C(C)(C)C(=O)O)cc1CN1CC2(CCOCC2)Oc2nc(NCCN3CCNCC3)c(C)cc2S1(=O)=O`, less than 1 nM. `Cc1cnc2c(c1)S(=O)(=O)N(Cc1cc([C@H](c3ccn4c(C(F)(F)F)nnc4c3C)C(C)(C)C(=O)O)cnc1C)CC1(CC1)O2`: the Kd is less than 1 nM.
